Measurements published in patent publication US7973061B2, “Anaplastic lymphoma kinase modulators and methods of use” (Exelixis, Inc., priority 2004, dated 2011).

These molecules were tested against T1, ALK (baculovirus expressed human ALK kinase domain F1098-K1410) (Homo sapiens, UniProt Q9UM73) (assay: biochemical). Details: 1 μM ATP, 4 μM poly-AEKY, 12 nM ALK, 2 hours at ambient temperature; read-out: ALK IC50.
T1 construct: human ALK kinase domain F1098-K1410; made in house
Procedure: Kinase activity and compound inhibition are investigated using one or more of the three assay formats described below. The ATP concentrations for each assay are selected to be close to the Michaelis-Menten constant (KM) for each individual kinase. Dose-response experiments are performed at 10 different inhibitor concentrations in a 384-well plate format. […] Y=Min+(Max−Min)/(1+(X/IC50)^H) Equation (2) Luciferase-Coupled Chemiluminescent Kinase Assay
ALK biochemical activity was assessed using a Luciferase-Coupled Chemiluminescent Kinase assay (LCCA) format in which kinase activity was measured as the percent ATP remaining following the kinase reaction. ATP remaining after the kinase reaction was detected by luciferase-luciferin-coupled chemiluminescence. […] The mixture was incubated at ambient temperature for 2 hours after which 20 μL luciferase-luciferin mix was added and the chemiluminescent signal read using a Wallac Victor^2 reader. […] Consumption of ATP by ALK can be quantified and utilized as a measure of inhibition of ALK activity by compounds described herein. By employing serial dilutions of compounds to be tested, the ability of test compounds to inhibit ALK activity can be determined.

T1 sequence (Q9UM73 1098-1410): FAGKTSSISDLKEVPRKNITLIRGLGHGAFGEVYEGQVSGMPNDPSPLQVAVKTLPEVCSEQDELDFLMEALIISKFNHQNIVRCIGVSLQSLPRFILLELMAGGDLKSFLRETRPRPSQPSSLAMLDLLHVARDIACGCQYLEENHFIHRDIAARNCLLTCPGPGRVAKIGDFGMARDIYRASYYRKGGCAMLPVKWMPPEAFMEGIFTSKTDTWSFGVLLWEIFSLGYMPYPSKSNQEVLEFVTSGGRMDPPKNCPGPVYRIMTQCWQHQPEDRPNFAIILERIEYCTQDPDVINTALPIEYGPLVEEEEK

Structure (SMILES)	IC50 [nM]
O=C(COc1ccc(OC(F)(F)F)cc1)NCc1nc(C(=O)NCc2ccccc2Cl)cs1 [Entry 32, N-[(2-chlorophenyl)methyl]-2-({[({4-[(trifluoromethyl)oxy]phenyl}oxy)acetyl]amino}methyl)-1,3-thiazole-4-carboxamide]	50 to 500
O=C(COc1ccc(OC(F)(F)F)cc1)NCc1nc(C(=O)NCc2ccccc2OC(F)F)cs1 [Entry 34, N-({2-[(difluoromethyl)oxy]phenyl}methyl)-2-({[({4-[(trifluoromethyl)oxy]phenyl}oxy)acetyl]amino}methyl)-1,3-thiazole-4-carboxamide]	50 to 500
O=C(COc1ccc(OC(F)(F)F)cc1)NCc1nc(C(=O)NCCC2=CCCCC2)cs1 [Entry 35, N-(2-cyclohex-1-en-1-ylethyl)-2-({[({4-[(trifluoromethyl)oxy]phenyl}oxy)acetyl]amino}methyl)-1,3-thiazole-4-carboxamide]	50 to 500
CCCCOCCCNC(=O)c1csc(CNC(=O)COc2ccc(OC(F)(F)F)cc2)n1 [Entry 37, N-[3-(butyloxy)propyl]-2-({[({4-[(trifluoromethyl)oxy]phenyl}oxy)acetyl]amino}methyl)-1,3-thiazole-4-carboxamide]	50 to 500
O=C(COc1ccc(OC(F)(F)F)cc1)NCc1nc(C(=O)NCC2c3ccccc3CCc3ccccc32)co1 [Entry 38, N-(10,11-dihydro-5H-dibenzo[a,d]cyclohepten-5-ylmethyl)-2-({[({4-[(trifluoromethyl)oxy]phenyl}oxy)acetyl]amino}methyl)-1,3-oxazole-4-carboxamide]	50 to 500
CSc1ccccc1CNC(=O)c1csc(CNC(=O)COc2ccc(OC(F)(F)F)cc2)n1 [Entry 41, N-{[2-(methylthio)phenyl]methyl}-2-({[({4-[(trifluoromethyl)oxy]phenyl}oxy)acetyl]amino}methyl)-1,3-thiazole-4-carboxamide]	50 to 500
CC(C)c1ccc(CC(=O)NCc2nc(C(=O)NCCc3cccc(Cl)c3)cs2)cc1 [Entry 50, N-[2-(3-chlorophenyl)ethyl]-2-[({[4-(1-methylethyl)phenyl]acetyl}amino)methyl]-1,3-thiazole-4-carboxamide]	50 to 500
O=C(COc1ccc(OC(F)(F)F)cc1)NCc1nc(C(=O)NCCc2cccnc2)cs1 [Entry 51, N-(2-pyridin-3-ylethyl)-2-({[({4-[(trifluoromethyl)oxy]phenyl}oxy)acetyl]amino}methyl)-1,3-thiazole-4-carboxamide]	50 to 500
O=C(COc1ccc(OC(F)(F)F)cc1)NCc1nc(C(=O)NCCc2cccc(C(F)(F)F)c2)cs1 [Entry 52, 2-({[({4-[(trifluoromethyl)oxy]phenyl}oxy)acetyl]amino}methyl)-N-{2-[3-(trifluoromethyl)phenyl]ethyl}-1,3-thiazole-4-carboxamide]	50 to 500
NC(=O)C(NC(=O)c1csc(CNC(=O)COc2ccc(OC(F)(F)F)cc2)n1)c1ccccc1 (stereo not drawn) [Entry 54, N-(2-amino-2-oxo-1-phenylethyl)-2-({[({4-[(trifluoromethyl)oxy]phenyl}oxy)acetyl]amino}methyl)-1,3-thiazole-4-carboxamide]	50 to 500
CC(C)c1ccc(OCC(=O)NCc2nc(C(=O)NCCc3ccccc3F)cs2)cc1 [Entry 55, N-[2-(2-fluorophenyl)ethyl]-2-{[({[4-(1-methylethyl)phenyl]oxy}acetyl)amino]methyl}-1,3-thiazole-4-carboxamide]	50 to 500
O=C(COc1ccc(OC(F)(F)F)cc1)NCc1nc(C(=O)NCc2ccccc2OC(F)(F)F)cs1 [Entry 57, N-({2-[(trifluoromethyl)oxy]phenyl}methyl)-2-({[({4-[(trifluoromethyl)oxy]phenyl}oxy)acetyl]amino}methyl)-1,3-thiazole-4-carboxamide]	50 to 500
CCOc1ccccc1CNC(=O)c1csc(CNC(=O)COc2ccc(OC(F)(F)F)cc2)n1 [Entry 58, N-{[2-(ethyloxy)phenyl]methyl}-2-({[({4-[(trifluoromethyl)oxy]phenyl}oxy)acetyl]amino}methyl)-1,3-thiazole-4-carboxamide]	50 to 500
O=C(COc1ccc(I)cc1)NCc1nc(C(=O)NCCc2ccccc2F)cs1 [Entry 59, N-[2-(2-fluorophenyl)ethyl]-2-[({[(4-iodophenyl)oxy]acetyl}amino)methyl]-1,3-thiazole-4-carboxamide]	50 to 500
O=C(COc1ccc(OC(F)(F)F)cc1)NCc1nc(C(=O)NCc2cc(F)ccc2F)cs1 [Entry 61, N-[(2,5-difluorophenyl)methyl]-2-({[({4-[(trifluoromethyl)oxy]phenyl}oxy)acetyl]amino}methyl)-1,3-thiazole-4-carboxamide]	50 to 500

Other lines, results leading:

IC50 [nM]	Structure (SMILES)
50 to 500	Cc1ccc(C)c(CCNC(=O)c2csc(CNC(=O)COc3ccc(OC(F)(F)F)cc3)n2)c1 [Entry 33, N-[2-(2,5-dimethylphenyl)ethyl]-2-({[({4-[(trifluoromethyl)oxy]phenyl}oxy)acetyl]amino}methyl)-1,3-thiazole-4-carboxamide]
50 to 500	Cc1ccc(CCNC(=O)c2csc(CNC(=O)COc3ccc(OC(F)(F)F)cc3)n2)cc1 [Entry 36, N-[2-(4-methylphenyl)ethyl]-2-({[({4-[(trifluoromethyl)oxy]phenyl}oxy)acetyl]amino}methyl)-1,3-thiazole-4-carboxamide]
50 to 500	Cc1ccc(Cl)cc1CNC(=O)c1csc(CNC(=O)COc2ccc(OC(F)(F)F)cc2)n1 [Entry 39, N-[(5-chloro-2-methylphenyl)methyl]-2-({[({4-[(trifluoromethyl)oxy]phenyl}oxy)acetyl]amino}methyl)-1,3-thiazole-4-carboxamide]
50 to 500	COc1cccc(CCNC(=O)c2csc(CNC(=O)COc3ccc(OC(F)(F)F)cc3)n2)c1 [Entry 40, N-{2-[3-(methyloxy)phenyl]ethyl}-2-({[({4-[(trifluoromethyl)oxy]phenyl}oxy)acetyl]amino}methyl)-1,3-thiazole-4-carboxamide]
50 to 500	COc1ccc(CCNC(=O)c2csc(CNC(=O)COc3ccc(OC(F)(F)F)cc3)n2)cc1OC [Entry 42, N-{2-[3,4-bis(methyloxy)phenyl]ethyl}-2-({[({4-[(trifluoromethyl)oxy]phenyl}oxy)acetyl]amino}methyl)-1,3-thiazole-4-carboxamide]
50 to 500	CCOc1ccc(CCNC(=O)c2csc(CNC(=O)COc3ccc(OC(F)(F)F)cc3)n2)cc1OC [Entry 43, N-{2-[4-(ethyloxy)-3-(methyloxy)phenyl]ethyl}-2-({[({4-[(trifluoromethyl)oxy]phenyl}oxy)acetyl]amino}methyl)-1,3-thiazole-4-carboxamide]
50 to 500	O=C(COc1ccc(OC(F)(F)F)cc1)NCc1nc(C(=O)NCCc2ccc(Cl)c(Cl)c2)cs1 [Entry 44, N-[2-(3,4-dichlorophenyl)ethyl]-2-({[({4-[(trifluoromethyl)oxy]phenyl}oxy)acetyl]amino}methyl)-1,3-thiazole-4-carboxamide]
50 to 500	O=C(COc1ccc(OC(F)(F)F)cc1)NCc1nc(C(=O)NCCc2c[nH]c3ccccc23)cs1 [Entry 45, N-[2-(1H-indol-3-yl)ethyl]-2-({[({4-[(trifluoromethyl)oxy]phenyl}oxy)acetyl]amino}methyl)-1,3-thiazole-4-carboxamide]
50 to 500	Cc1cccc(CNC(=O)c2csc(CNC(=O)COc3ccc(OC(F)(F)F)cc3)n2)c1C [Entry 46, N-[(2,3-dimethylphenyl)methyl]-2-({[({4-[(trifluoromethyl)oxy]phenyl}oxy)acetyl]amino}methyl)-1,3-thiazole-4-carboxamide]
50 to 500	Cc1ccc(F)cc1CNC(=O)c1csc(CNC(=O)COc2ccc(OC(F)(F)F)cc2)n1 [Entry 47, N-[(5-fluoro-2-methylphenyl)methyl]-2-({[({4-[(trifluoromethyl)oxy]phenyl}oxy)acetyl]amino}methyl)-1,3-thiazole-4-carboxamide]
50 to 500	O=C(COc1ccc(OC(F)(F)F)cc1)NCc1nc(C(=O)NCCc2ccncc2)cs1 [Entry 48, N-(2-pyridin-4-ylethyl)-2-({[({4-[(trifluoromethyl)oxy]phenyl}oxy)acetyl]amino}methyl)-1,3-thiazole-4-carboxamide]
50 to 500	Cc1ccc(CCNC(=O)c2csc(CNC(=O)COc3ccc(OC(F)(F)F)cc3)n2)c(C)c1 [Entry 49, N-[2-(2,4-dimethylphenyl)ethyl]-2-({[({4-[(trifluoromethyl)oxy]phenyl}oxy)acetyl]amino}methyl)-1,3-thiazole-4-carboxamide]
50 to 500	COc1cccc(CCNC(=O)c2csc(CNC(=O)COc3ccc(OC(F)(F)F)cc3)n2)c1OC [Entry 53, N-{2-[2,3-bis(methyloxy)phenyl]ethyl}-2-({[({4-[(trifluoromethyl)oxy]phenyl}oxy)acetyl]amino}methyl)-1,3-thiazole-4-carboxamide]
50 to 500	Cc1ccc(CCNC(=O)c2csc(CNC(=O)COc3ccc(OC(F)(F)F)cc3)n2)cc1C [Entry 56, N-[2-(3,4-dimethylphenyl)ethyl]-2-({[({4-[(trifluoromethyl)oxy]phenyl}oxy)acetyl]amino}methyl)-1,3-thiazole-4-carboxamide]
50 to 500	CCOc1ccccc1CCNC(=O)c1csc(CNC(=O)COc2ccc(OC(F)(F)F)cc2)n1 [Entry 60, N-{2-[2-(ethyloxy)phenyl]ethyl}-2-({[({4-[(trifluoromethyl)oxy]phenyl}oxy)acetyl]amino}methyl)-1,3-thiazole-4-carboxamide]
